Laboratory results reported in publication PMC6757289, “Design and Characterization of SGK3-PROTAC1, an Isoform Specific SGK3 Kinase PROTAC Degrader” (ACS Chemical Biology, 2019).
Like-named read-outs stand apart in the source and are kept apart here.

How the values were obtained:
Assay in all cases: kinase profiling panel
Type in all cases: biochemical
Settings in all cases: read-out: % Activity Remaining
ASK1 = molecular target: T1, ASK1 (Homo sapiens, UniProt Q99683)
T1 sequence (Q99683 1-1374): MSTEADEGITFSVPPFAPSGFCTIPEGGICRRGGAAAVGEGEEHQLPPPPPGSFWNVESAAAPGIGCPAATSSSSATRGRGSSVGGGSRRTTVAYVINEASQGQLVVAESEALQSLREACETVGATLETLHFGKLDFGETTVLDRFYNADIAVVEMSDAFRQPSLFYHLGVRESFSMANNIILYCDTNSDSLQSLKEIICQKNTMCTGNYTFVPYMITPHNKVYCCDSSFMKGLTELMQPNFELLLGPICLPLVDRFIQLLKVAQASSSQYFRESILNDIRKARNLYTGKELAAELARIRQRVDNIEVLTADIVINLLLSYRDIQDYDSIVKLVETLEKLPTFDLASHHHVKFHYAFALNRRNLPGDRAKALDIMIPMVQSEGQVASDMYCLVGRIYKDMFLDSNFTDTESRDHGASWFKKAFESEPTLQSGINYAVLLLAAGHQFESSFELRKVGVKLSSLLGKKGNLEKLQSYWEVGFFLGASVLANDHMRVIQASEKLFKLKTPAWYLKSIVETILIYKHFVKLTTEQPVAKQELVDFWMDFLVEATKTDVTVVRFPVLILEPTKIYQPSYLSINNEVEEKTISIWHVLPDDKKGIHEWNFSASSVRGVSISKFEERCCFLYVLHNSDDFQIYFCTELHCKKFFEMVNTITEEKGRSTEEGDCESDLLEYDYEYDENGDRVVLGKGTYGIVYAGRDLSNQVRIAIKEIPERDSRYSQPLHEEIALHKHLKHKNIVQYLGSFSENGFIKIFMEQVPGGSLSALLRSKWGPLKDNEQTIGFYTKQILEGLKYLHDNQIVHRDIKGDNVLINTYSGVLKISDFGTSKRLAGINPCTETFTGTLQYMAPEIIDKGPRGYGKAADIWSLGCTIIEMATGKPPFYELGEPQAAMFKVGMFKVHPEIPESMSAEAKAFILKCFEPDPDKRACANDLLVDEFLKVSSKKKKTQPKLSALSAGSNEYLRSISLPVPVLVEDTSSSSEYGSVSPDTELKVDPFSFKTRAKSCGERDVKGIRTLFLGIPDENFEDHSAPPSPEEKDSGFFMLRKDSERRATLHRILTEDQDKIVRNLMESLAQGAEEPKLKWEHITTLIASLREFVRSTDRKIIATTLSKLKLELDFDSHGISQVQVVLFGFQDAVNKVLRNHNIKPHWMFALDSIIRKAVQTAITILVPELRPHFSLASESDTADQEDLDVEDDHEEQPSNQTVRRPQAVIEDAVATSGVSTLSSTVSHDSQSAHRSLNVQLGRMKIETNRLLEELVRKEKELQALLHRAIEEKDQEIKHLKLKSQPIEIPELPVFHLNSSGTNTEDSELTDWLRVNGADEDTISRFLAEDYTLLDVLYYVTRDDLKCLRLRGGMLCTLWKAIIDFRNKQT
Text: (§1) Protein kinase profiling against a Dundee panel of 140 protein kinases was undertaken at the International Centre for Protein Kinase Profiling. The result for each kinase was presented as a mean kinase activity of the reaction taken in triplicate relative to a control sample treated with DMSO. Assay conditions and abbreviations are available at http://www.kinase-screen.mrc.ac.uk.

LKB1 = molecular target: T2, LKB1 (Homo sapiens, UniProt Q15831)
T2 sequence (Q15831 1-433): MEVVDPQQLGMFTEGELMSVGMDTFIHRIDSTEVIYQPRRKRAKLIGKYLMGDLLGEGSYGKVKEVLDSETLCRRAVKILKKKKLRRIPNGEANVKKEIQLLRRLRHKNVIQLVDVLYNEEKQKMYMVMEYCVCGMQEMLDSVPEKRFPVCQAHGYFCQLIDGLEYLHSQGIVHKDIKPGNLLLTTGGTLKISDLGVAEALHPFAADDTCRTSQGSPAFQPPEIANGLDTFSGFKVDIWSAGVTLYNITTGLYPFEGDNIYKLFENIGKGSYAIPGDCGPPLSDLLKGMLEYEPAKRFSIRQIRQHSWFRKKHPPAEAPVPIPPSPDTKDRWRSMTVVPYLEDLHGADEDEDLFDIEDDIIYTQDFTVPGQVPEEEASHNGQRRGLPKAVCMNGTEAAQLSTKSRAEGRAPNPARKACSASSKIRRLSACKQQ
T2 sequence (Q7RTN6 1-431 partner): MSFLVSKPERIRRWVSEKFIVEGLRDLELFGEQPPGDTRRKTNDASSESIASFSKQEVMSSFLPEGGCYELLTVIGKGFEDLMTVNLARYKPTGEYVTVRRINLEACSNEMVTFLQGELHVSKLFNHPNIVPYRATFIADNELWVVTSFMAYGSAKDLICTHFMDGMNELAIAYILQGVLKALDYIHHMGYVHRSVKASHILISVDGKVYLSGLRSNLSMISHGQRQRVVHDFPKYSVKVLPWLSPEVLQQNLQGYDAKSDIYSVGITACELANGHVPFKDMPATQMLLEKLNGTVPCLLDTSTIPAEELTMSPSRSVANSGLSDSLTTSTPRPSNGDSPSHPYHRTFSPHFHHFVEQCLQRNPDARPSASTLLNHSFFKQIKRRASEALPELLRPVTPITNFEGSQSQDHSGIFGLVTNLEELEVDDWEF
T2 sequence (Q9Y376 1-341 partner): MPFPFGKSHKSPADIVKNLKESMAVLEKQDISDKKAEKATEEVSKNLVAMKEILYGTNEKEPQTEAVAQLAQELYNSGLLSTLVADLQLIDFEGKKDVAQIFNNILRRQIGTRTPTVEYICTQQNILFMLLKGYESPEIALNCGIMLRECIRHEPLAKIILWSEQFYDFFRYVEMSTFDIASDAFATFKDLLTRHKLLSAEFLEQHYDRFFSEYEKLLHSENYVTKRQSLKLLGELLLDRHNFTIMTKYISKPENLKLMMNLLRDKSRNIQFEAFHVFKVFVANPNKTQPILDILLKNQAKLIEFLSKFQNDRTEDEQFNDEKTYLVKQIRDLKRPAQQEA
Text: as §1

ROCK 2 = ROCK 2 (Homo sapiens, UniProt O75116)
Chain of ROCK 2 (O75116 whole entry): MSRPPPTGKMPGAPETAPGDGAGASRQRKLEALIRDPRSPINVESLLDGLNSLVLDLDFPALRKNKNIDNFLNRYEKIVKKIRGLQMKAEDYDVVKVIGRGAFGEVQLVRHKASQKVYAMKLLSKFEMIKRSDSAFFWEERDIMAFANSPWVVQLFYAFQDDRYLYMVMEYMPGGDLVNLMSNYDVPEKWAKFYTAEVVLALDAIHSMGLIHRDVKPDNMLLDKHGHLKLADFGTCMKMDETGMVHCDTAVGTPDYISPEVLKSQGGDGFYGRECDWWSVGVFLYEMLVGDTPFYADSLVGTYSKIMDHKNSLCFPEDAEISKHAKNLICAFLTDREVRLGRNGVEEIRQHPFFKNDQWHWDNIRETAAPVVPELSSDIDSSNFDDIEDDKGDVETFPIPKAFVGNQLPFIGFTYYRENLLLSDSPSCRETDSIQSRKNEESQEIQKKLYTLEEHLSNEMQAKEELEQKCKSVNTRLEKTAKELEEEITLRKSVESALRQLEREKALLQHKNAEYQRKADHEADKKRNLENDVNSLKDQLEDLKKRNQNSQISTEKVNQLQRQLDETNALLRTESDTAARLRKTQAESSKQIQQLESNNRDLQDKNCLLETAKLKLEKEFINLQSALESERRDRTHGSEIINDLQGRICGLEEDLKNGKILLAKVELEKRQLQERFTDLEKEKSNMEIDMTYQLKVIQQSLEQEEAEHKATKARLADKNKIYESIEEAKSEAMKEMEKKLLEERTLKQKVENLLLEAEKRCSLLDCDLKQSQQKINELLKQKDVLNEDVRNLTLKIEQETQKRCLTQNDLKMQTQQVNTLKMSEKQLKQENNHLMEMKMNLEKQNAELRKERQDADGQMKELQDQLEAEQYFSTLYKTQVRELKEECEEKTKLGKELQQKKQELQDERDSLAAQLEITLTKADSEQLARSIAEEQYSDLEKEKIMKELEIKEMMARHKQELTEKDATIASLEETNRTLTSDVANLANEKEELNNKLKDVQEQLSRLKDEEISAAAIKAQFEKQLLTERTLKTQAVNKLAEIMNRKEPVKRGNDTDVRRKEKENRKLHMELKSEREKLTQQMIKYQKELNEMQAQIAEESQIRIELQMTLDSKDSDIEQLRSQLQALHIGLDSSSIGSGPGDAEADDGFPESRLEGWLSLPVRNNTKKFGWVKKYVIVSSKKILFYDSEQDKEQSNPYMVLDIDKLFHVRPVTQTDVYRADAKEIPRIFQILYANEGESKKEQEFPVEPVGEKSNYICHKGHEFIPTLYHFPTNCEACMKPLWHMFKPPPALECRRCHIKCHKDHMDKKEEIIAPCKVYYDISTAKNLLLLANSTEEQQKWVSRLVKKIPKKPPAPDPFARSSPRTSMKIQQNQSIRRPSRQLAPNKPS
Text: as §1

Compound	remaining activity at 1 µM (ASK1; 1 µM) [%]	remaining activity at 1 µM (LKB1; 1 µM) [%]	remaining activity at 1 µM (ROCK 2; 1 µM) [%]	remaining activity at 1 µM (ASK1) [%]	remaining activity at 1 µM (LKB1) [%]	remaining activity at 1 µM (ROCK 2) [%]
Cc1ccc(F)c(S(=O)(=O)Nc2ccc(-c3nc(OC[C@H]4CN(CCCCCCOCCOCCOCC(=O)N[C@H](C(=O)N5C[C@H](O)C[C@H]5C(=O)NCc5ccc(-c6scnc6C)cc5)C(C)(C)C)CCO4)c4cn[nH]c4n3)cc2)c1 [SGK3-PROTAC1]	113	105	113			
COc1ccc(Cl)c(S(=O)(=O)Nc2ccc(-c3nc(OC[C@H]4CNCCO4)c4c(C)n[nH]c4n3)cc2)c1 [290-R, reference compound]				104	106	105
Cc1ccc(F)c(S(=O)(=O)Nc2ccc(-c3nc(OC[C@H]4CN(CCCCCCOCCOCCOCC(=O)N[C@H](C(=O)N5C[C@@H](O)C[C@H]5C(=O)NCc5ccc(-c6scnc6C)cc5)C(C)(C)C)CCO4)c4cn[nH]c4n3)cc2)c1 [cisSGK3-PROTAC1]	102	112	119			
Cc1ccc(F)c(S(=O)(=O)Nc2ccc(-c3nc(OC[C@H]4CNCCO4)c4cn[nH]c4n3)cc2)c1 [308-R, reference compound]				87	96	74
